# Laboratory results reported in BindingDB's records for PubMed 11303063 (Creighton University, 2001).
# Values joined by “and” are separate entries in the source; they are usually repeats but may differ in a detail not shown here. Equal values may be shown once.
# Target: Muscarinic acetylcholine receptor M3 (Rattus norvegicus, UniProt P08483)
# Sequence (P08483 whole entry): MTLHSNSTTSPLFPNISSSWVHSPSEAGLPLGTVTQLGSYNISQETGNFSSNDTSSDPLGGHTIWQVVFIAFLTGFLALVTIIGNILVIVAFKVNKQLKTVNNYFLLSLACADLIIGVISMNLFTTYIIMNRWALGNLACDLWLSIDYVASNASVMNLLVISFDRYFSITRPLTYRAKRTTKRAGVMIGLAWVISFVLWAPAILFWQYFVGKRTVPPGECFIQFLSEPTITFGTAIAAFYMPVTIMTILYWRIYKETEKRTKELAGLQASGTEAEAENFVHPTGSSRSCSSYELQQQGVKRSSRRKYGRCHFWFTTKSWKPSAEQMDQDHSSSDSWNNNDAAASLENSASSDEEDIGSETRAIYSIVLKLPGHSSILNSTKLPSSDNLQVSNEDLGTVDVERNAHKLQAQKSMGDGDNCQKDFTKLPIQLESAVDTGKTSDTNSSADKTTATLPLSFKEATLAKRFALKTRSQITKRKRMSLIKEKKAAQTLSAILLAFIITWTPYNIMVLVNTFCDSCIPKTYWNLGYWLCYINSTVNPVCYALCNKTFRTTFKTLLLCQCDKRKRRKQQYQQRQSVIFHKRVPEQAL
row,Compound,Ki
1,COc1ccccc1CNCCCCCCNCCCCCCCCNCCCCCCNCc1ccccc1OC [METHOCTRAMINE],1400 nM and 1700 nM
2,CN(CCCCCCCCN(C)CCCCCCN(CC(=O)N1c2ccccc2C(=O)Nc2cccnc21)CC(=O)N1c2ccccc2C(=O)Nc2cccnc21)CCCCCCNCC(=O)N1c2ccccc2C(=O)Nc2cccnc21 [NSC_132947],220 nM and 180 nM
